Measured values reported in PubChem BioAssay AID330 (DTP/NCI, 2004).
“And” between values parts separate entries of the source, which are not always exact repeats. Identical values can stand only once. Inconclusive results and toxic doses are left out. How the source made its calls: active means survival T/C of 150% or more; inactive means T/C below 125% in these data.

System: P388 leukemia ip, CD2F1 mice, survival T/C
Assay: NCI In Vivo Anticancer Drug Screen. Data for tumor model P388 Leukemia (intraperitoneal) in CD2F1 (CDF1) mice
Conditions: endpoint: median survival time, higher = longer survival
Summary of the method: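 Mice carrying the transplanted tumor received test compound or vehicle. Survival was recorded in each group, and the value is the treated-group measurement divided by that of the vehicle-treated control group.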

[1] = dose: 25.0 mg/kg/injection, schedule: Q01DX009 (ip), vehicle: saline with Tween-80
[2] = dose: 50.0 mg/kg/injection, schedule: Q01DX009 (ip), vehicle: saline with Tween-80
[3] = dose: 100.0 mg/kg/injection, schedule: Q01DX009 (ip), vehicle: saline with Tween-80
[4] = dose: 50.0 mg/kg/injection, schedule: Q01DX009 (ip), vehicle: Klucel (hydroxypropylcellulose) (HPC)
[5] = dose: 100.0 mg/kg/injection, schedule: Q01DX009 (ip), vehicle: Klucel (hydroxypropylcellulose) (HPC)
[6] = dose: 25.0 mg/kg/injection, schedule: Q01DX005 (ip), vehicle: Klucel (hydroxypropylcellulose) (HPC)
[7] = dose: 50.0 mg/kg/injection, schedule: Q01DX005 (ip), vehicle: Klucel (hydroxypropylcellulose) (HPC)
[8] = dose: 100.0 mg/kg/injection, schedule: Q01DX005 (ip), vehicle: Klucel (hydroxypropylcellulose) (HPC)
[9] = dose: 200.0 mg/kg/injection, schedule: Q01DX005 (ip), vehicle: Klucel (hydroxypropylcellulose) (HPC)
[10] = dose: 50.0 mg/kg/injection, schedule: Q01DX009 (ip), vehicle: saline
[11] = dose: 100.0 mg/kg/injection, schedule: Q01DX009 (ip), vehicle: saline
[12] = dose: 200.0 mg/kg/injection, schedule: Q01DX009 (ip), vehicle: saline
[13] = dose: 50.0 mg/kg/injection, schedule: Q04DX003 (ip), vehicle: saline
[14] = dose: 50.0 mg/kg/injection, schedule: Q01DX005 (ip), vehicle: saline with Tween-80
[15] = dose: 100.0 mg/kg/injection, schedule: Q01DX005 (ip), vehicle: saline with Tween-80
[16] = dose: 60.0 mg/kg/injection, schedule: Q01DX005 (ip), vehicle: saline with Tween-80
[17] = dose: 120.0 mg/kg/injection, schedule: Q01DX005 (ip), vehicle: saline with Tween-80
[18] = dose: 240.0 mg/kg/injection, schedule: Q01DX005 (ip), vehicle: saline with Tween-80

Measured: T/C

CCC1(C)c2cc(C)c(C(C)=O)cc2C(C)(C)C1C (stereo not given)
inactive: [1] 100 % of control | [2] 101 % of control | [3] 100 % of control

C=C(CN(C)C)C(=O)c1ccccc1Cl
inactive: dose: 1.8 mg/kg/injection, schedule: Q01DX005 (ip), vehicle: saline 109 % of control | dose: 3.75 mg/kg/injection, schedule: Q01DX005 (ip), vehicle: saline 106 % of control | dose: 7.5 mg/kg/injection, schedule: Q01DX005 (ip), vehicle: saline 105 % of control and 107 % of control

OC(C(c1ccccc1)c1ccccn1)(C(F)(F)F)C(F)(F)F (stereo not given)
inactive: dose: 100.0 mg/kg/injection, schedule: Q04DX003 (ip), vehicle: saline with Tween-80 100 % of control | dose: 200.0 mg/kg/injection, schedule: Q04DX003 (ip), vehicle: saline with Tween-80 95 % of control | dose: 400.0 mg/kg/injection, schedule: Q04DX003 (ip), vehicle: saline with Tween-80 95 % of control

Cn1c(=O)c2c(-c3ccc(Cl)cc3)onc2n(C)c1=O
inactive: [4] 96 % of control | [5] 100 % of control

Nc1cc(Cl)c2[nH]c(-c3ccccc3)nc2n1
inactive: dose: 50.0 mg/kg/injection, schedule: Q01DX001 (ip), vehicle: saline with Tween-80 96 % of control | dose: 100.0 mg/kg/injection, schedule: Q01DX001 (ip), vehicle: saline with Tween-80 94 % of control

Cc1nc2ccccc2c2c(N)cccc12
inactive: [6] 105 % of control | [7] 102 % of control | [8] 98 % of control | [9] 105 % of control

Cc1c(C#N)c2nc(N)c3ccccc3n2c1C
inactive: [7] 101 % of control | [8] 106 % of control | [9] 106 % of control

Cc1ccc(O)c(C(c2cc(C)ccc2O)c2cc(C)ccc2O)c1
inactive: [1] 107 % of control | [2] 105 % of control and 113 % of control | [3] 101 % of control

CC(C)=CCc1c(C)cc2cc3c(c(O)c2c1O)C(O)=CC(=O)C3(CC=C(C)C)CC=C(CO)CO (stereo not given)
inactive: [6] 97 % of control | [7] 93 % of control | [8] 94 % of control

C1CCC2(CC1)NCCO2
inactive: dose: 25.0 mg/kg/injection, schedule: Q01DX005 (ip), vehicle: suspension in saline 98 % of control | dose: 50.0 mg/kg/injection, schedule: Q01DX005 (ip), vehicle: suspension in saline 93 % of control | dose: 100.0 mg/kg/injection, schedule: Q01DX005 (ip), vehicle: suspension in saline 94 % of control | dose: 200.0 mg/kg/injection, schedule: Q01DX005 (ip), vehicle: suspension in saline 109 % of control | dose: 400.0 mg/kg/injection, schedule: Q01DX005 (ip), vehicle: suspension in saline 98 % of control

CNC(=O)Oc1ncccc1[N+](=O)[O-]
inactive: [10] 98 % of control and 117 % of control | [11] 107 % of control and 119 % of control | [12] 98 % of control and 88 % of control

CC1CC(Cc2ccccc2)C(=O)CC(C)(C)CC(=O)O1 (stereo not given)
inactive: [13] 100 % of control and 103 % of control and 106 % of control

NCCC[Se]CC(N)C(=O)O (stereo not given)
inactive: dose: 12.5 mg/kg/injection, schedule: Q01DX005 (ip), vehicle: saline 100 % of control | dose: 25.0 mg/kg/injection, schedule: Q01DX005 (ip), vehicle: saline 102 % of control | dose: 25.0 mg/kg/injection, schedule: Q04DX003 (ip), vehicle: saline 95 % of control | dose: 50.0 mg/kg/injection, schedule: Q01DX005 (ip), vehicle: saline 104 % of control | [13] 111 % of control | dose: 100.0 mg/kg/injection, schedule: Q01DX005 (ip), vehicle: saline 102 % of control | dose: 100.0 mg/kg/injection, schedule: Q04DX003 (ip), vehicle: saline 110 % of control and 119 % of control

NC(=Nc1ccc(S(=O)(=O)Nc2cnc3ccccc3n2)cc1)/N=C(/N)Nc1ccc(Br)cc1
inactive: [14] 99 % of control | [15] 100 % of control | dose: 200.0 mg/kg/injection, schedule: Q01DX005 (ip), vehicle: saline with Tween-80 99 % of control

COc1cc(OC)c(C(=O)CCN(C)C)cc1OC
inactive: dose: 60.0 mg/kg/injection, schedule: Q01DX005 (ip), vehicle: saline 109 % of control | dose: 120.0 mg/kg/injection, schedule: Q01DX005 (ip), vehicle: saline 116 % of control | dose: 240.0 mg/kg/injection, schedule: Q01DX005 (ip), vehicle: saline 114 % of control

CC(=O)Oc1ccc(OCc2ccccc2)c(OCc2ccccc2)c1
inactive: [2] 102 % of control | [3] 99 % of control | dose: 200.0 mg/kg/injection, schedule: Q01DX009 (ip), vehicle: saline with Tween-80 107 % of control

O=c1nc2n(CC(O)C(O)C(O)C(O)CO)c3cc(Cl)c(Cl)cc3nc-2c(=O)[nH]1 (stereo not given)
inactive: [14] 105 % of control | [15] 111 % of control

S=C(SSC(=S)Sc1ccccc1)Sc1ccccc1
inactive: dose: 100.0 mg/kg/injection, schedule: Q04DX002 (ip), vehicle: Klucel (hydroxypropylcellulose) (HPC) 112 % of control | dose: 200.0 mg/kg/injection, schedule: Q04DX002 (ip), vehicle: Klucel (hydroxypropylcellulose) (HPC) 107 % of control | dose: 400.0 mg/kg/injection, schedule: Q04DX002 (ip), vehicle: Klucel (hydroxypropylcellulose) (HPC) 102 % of control

O=C(Nc1ccc(Cl)cc1Cl)c1ccc2c(c1)C(=O)OC2=O
inactive: [16] 98 % of control | [17] 89 % of control | [18] 86 % of control

CCOC(=O)CNC(=O)Sc1ccc(C(C)(C)C)cc1C
inactive: dose: 50.0 mg/kg/injection, schedule: Q01DX005 (ip), vehicle: saline + Tween-80 + alcohol 100 % of control (2×) and 107 % of control | dose: 100.0 mg/kg/injection, schedule: Q01DX005 (ip), vehicle: saline + Tween-80 + alcohol 110 % of control and 111 % of control and 118 % of control | dose: 200.0 mg/kg/injection, schedule: Q01DX005 (ip), vehicle: saline + Tween-80 + alcohol 114 % of control and 120 % of control | dose: 400.0 mg/kg/injection, schedule: Q01DX005 (ip), vehicle: saline + Tween-80 + alcohol 114 % of control

COc1cc(C2c3c(oc4ccccc4c3=O)Oc3oc4ccccc4c(=O)c32)cc(OC)c1OC
inactive: [16] 86 % of control | [17] 87 % of control

O=C(NC(CSSCC(NC(=O)OCc1ccccc1)C(=O)O)C(=O)O)OCc1ccccc1 (stereo not given)
inactive: dose: 100.0 mg/kg/injection, schedule: Q04DX003 (ip), vehicle: other 100 % of control | dose: 200.0 mg/kg/injection, schedule: Q04DX003 (ip), vehicle: other 100 % of control | dose: 400.0 mg/kg/injection, schedule: Q04DX003 (ip), vehicle: other 100 % of control

NC(=S)c1ccc(C2Nc3ccc(Cl)cc3N2)cc1 (stereo not given)
inactive: dose: 12.5 mg/kg/injection, schedule: Q04DX002 (ip), vehicle: saline with Tween-80 106 % of control | dose: 25.0 mg/kg/injection, schedule: Q04DX002 (ip), vehicle: saline with Tween-80 94 % of control | dose: 50.0 mg/kg/injection, schedule: Q04DX002 (ip), vehicle: saline with Tween-80 90 % of control

COc1ccc(-c2coc3cc(OC4OC(COC5OCC(O)C(O)C5O)C(O)C(O)C4O)cc(O)c3c2=O)cc1 (stereo not given)
inactive: [1] 103 % of control | [2] 98 % of control | [3] 102 % of control

O=C(O)c1cccc2nc3cc4c(c(C(=O)O)c3nc12)OCO4
inactive: [16] 93 % of control | [17] 99 % of control | [18] 105 % of control

O=S(=O)(c1ccc(Cl)cc1)S(=O)(=O)c1ccc(Cl)cc1
inactive: [10] 92 % of control | [11] 97 % of control | [12] 101 % of control

CN(C)/N=C1/CC(=O)CC(C)(C)C1
inactive: dose: 60.0 mg/kg/injection, schedule: Q01DX005 (ip), vehicle: Klucel (hydroxypropylcellulose) (HPC) 102 % of control | dose: 120.0 mg/kg/injection, schedule: Q01DX005 (ip), vehicle: Klucel (hydroxypropylcellulose) (HPC) 100 % of control | dose: 240.0 mg/kg/injection, schedule: Q01DX005 (ip), vehicle: Klucel (hydroxypropylcellulose) (HPC) 99 % of control

CCCCc1ccc(C(N)=O)nc1
inactive: [7] 104 % of control | [8] 99 % of control

CC12CC3(Br)CC(Br)(C1)CC(CC(=O)O)(C2)C3
inactive: [4] 103 % of control | [5] 112 % of control | dose: 200.0 mg/kg/injection, schedule: Q01DX009 (ip), vehicle: Klucel (hydroxypropylcellulose) (HPC) 112 % of control

CCCCCCC(Nc1ncnc(Cl)c1N)C(C)O (stereo not given)
inactive: dose: 12.5 mg/kg/injection, schedule: Q01DX009 (ip), vehicle: saline with Tween-80 97 % of control | [1] 100 % of control
